This note sets out measurements from patent publication US20090209605A1, “NEMATICIDAL COMPOSITIONS” (Devgen N.V., priority 2004, published 2009).

Holding throughout (format): in vivo
Data set [1] has as its system Meloidogyne incognita nematodes. Description: Pot Assay 1: Meloidogyne infection of potato, egg masses/galls on roots. To be noted: potato in pot, week 8 after inoculation. The method, then: 500 ml clay pots were filled with 400 ml of silver sand. One tuber of potato ( Solanum tuberosum cv. Bintje) was planted in the sand. After 2 to 3 weeks incubation, the potato plant was sufficiently developed to be inoculated.
Plants were grown under the usual standard greenhouse conditions at 14° C.-18° C., with 16 hours light and 8 hours dark and 80-90% relative humidity. The pots were watered using individual drippers and fertilizers were added under the form of macro- and micro nutrients according to plant growth requirements. When needed, the plants were sprayed with fungicides and insecticides.
The compounds as described herein were added one day before inoculation. The compounds were dissolved in a 20 ml DMSO-solution and spread over the sand surface. The final concentration is calculated under the assumption that the compound is diffused entirely in the pot. This process occurred during two days at the normal greenhouse conditions described above.
After compound incubation, approximately 1500 juveniles of Meloidogyne incognita nematodes were added to the pots.
The pots were incubated at the described greenhouse conditions until nematode development was completed. At week 8 after inoculation the number of galls formed on the roots was counted after washing off the sandy substrate. Also the effect of the compound on the plant development was recorded.
Every compound was tested in three replicates. Positive control plants were treated with different concentrations of aldicarb, a known nematicide. Negative controls involved 12 replicates of double negative controls (no compound, no nematode), 12 replicates of single negative controls (no compound, no DMSO, with nematode), 24 replicates of DMSO controls (DMSO solution, with nematode).
As assessment of the root development was taken into account.

In data set [2] the test system is tomato (cv. Rio Grande). Put plainly: Pot Assay 2: root development (vigor of roots) of tomato. To be noted: visual value 0 to 10 (10 equal to control). The method, then:
Phytotoxicity of compounds as described herein when used as a nematicide, was measured as follows. […] At that moment, plant emergence was assessed for the plants treated with any of the compounds as described herein, by counting the number of plants per compound-concentration.
Vigor of roots was also assessed once the plants are well established so as not to loose plants. To assess vigor of the plants or roots, a visual value ranging from 0 to 10 (0 no vigor, 10 equal to control) was scored per compound-concentration.

In data set [3] the test system is Meloidogyne nematodes. Description: Pot Assay 2: Meloidogyne infection of tomato, % infestation of roots. The conditions noted are these: tomato in infested soil. The method, then: The soil used in this assay originated from a plot, heavily infested with Meloidogyne nematodes. Part of this soil was sterilized by autoclaving and was used as negative control. Sandy soil, which was not infested with nematodes, was pursued from a commercial source.
Plastic seedling trays with wells of 60 ml capacity were filled with about 40 ml of soil per well. 5 ml of water per well was used for irrigation.
Compounds as described herein were tested in 4 different rates and with 12 replicates for each concentration. The compounds as described herein were stored as dry films of 4 different concentrations. The day of the application of the compounds, all the dry films were dissolved in 60 ml water and poured into the 12 replicate wells: 5 ml per well. Every tray of 12 wells was identified with a label, indicating compound and concentration used. The 4 final rates in the soil of the tested compound were approximately 0.05 mg, 0.20 mg, 1 mg and 5 mg. These amounts translate to field application rates respectively as 30, 120, 600 and 3000 g per hectare.
3-5 days after application of the tested compound, tomato seeds (cv. Rio Grande) were sown in the wells by hand, at about 2 cm deep. A light cover of vermiculite on the surface was used to avoid dehydration. Plants were irrigated by micro-nebulization 3-4 times per week at a rate of 3 L/m^2, weeded by hand and treated with fertilizers, fungicide and insecticides when needed.
Their resistance against nematode infection was monitored and the efficacy of compounds described herein as a nematicide was measured. Furthermore the phytotoxicity of the test compounds was evaluated.
Efficacy of the compounds described herein as nematicide was measured by giving the roots a percentage of infestation measured as follows. Plants were grown to reach good development of the roots, which corresponds to plants grown to about 10 cm high at about one month after emergence. After removal of the soil from the roots by rinsing with water, the roots were visually inspected and root galls were counted on 4 plants of the set of 12 replicate plants.
Positive control plants were treated with a 10 micromolar concentration of oxamyl (Vydate, 10% SL; the rate of 10 micromolar corresponds to a commercial rate of 20 l/ha), a known nematicide. Negative controls involved double negative controls (no compound, sterile soil), and single negative controls (no compound, with nematode infested soil).

For data set [4], the system named is Meloidogyne incognita. Put plainly: Root infestation on agar plate: root knot count on potato microplant roots. To be noted: 60 μM in agar, galls counted 5 weeks after inoculation, four replicates. The method, then: 9 cm petri dishes were filled with a 15 ml agar. One stem cutting of a potato microplant (Solanum tuberosum cv. Desirée) was placed on top of the agar layer. After 2 to 3 weeks of incubation at 20° C., the root system was sufficiently developed to be inoculated.
The test compounds (see Table 1) were added 2 days before inoculation by way of spreading a 2 ml DMSO-solution with the compound over the agar and allowing the compound to diffuse in the agar during two days at constant temperature of 20° C. During incubation, the plates are protected from light in a dark incubator. The resulting concentration of each compound in each agar plate was 60 μM.
After incubation, approximately 400 axenic juveniles of Meloidogyne incognita species were added to the plate.
The plates were incubated in the dark at a constant temperature of 20° C. and 5 weeks after inoculation the number of galls formed on the roots were determined by counting. Also any toxic effect of the test compounds on the roots was recorded. 8 weeks after inoculation the plates were stored at low temperature.
Each compound was tested in four replicates. Positive controls were treated with different concentrations of Aldicarb, a known nematicide. Negative controls included 5 replicates of double negative controls (no compound, no nematode), 5 replicates of single negative controls (no compound, with nematode) and 5 replicates of DMSO controls (DMSO solution, with nematode).

Data set [5] relates to Heterodera nematode. Description: Pot Assay 3: Heterodera infection of sugar beet, crop vigor and crop height. To be noted: Rate 0.05 mg; infested soil. The text has this:
The soil used in this assay originated from a Heterodera nematode infested sugar plot of which the infestation was confirmed by means of several soil analyses. Each pot was filled up with a soil mixture composed as follows: a) the infested soil was constituted by silt loam soil (about 600 g/pot) mixed with sterile peat (about 600 g/pot) and sterile cork (about 200 g/pot); b) the sterile soil was instead constituted only by sterile peat (1200 g/pot) and sterile cork (200 g/pot).
(§1) Each compound or compound mixture as described herein was tested in 4 different rates with 4 replicates per rate. One pot per replicate was used in which 18 beava sugar beet seeds (variety GEA (KWS)) were sown. After crop germination, the number of plants was reduced to 10 plants. The 4 rates added to the soil of the tested compounds or compound mixtures were 0.05 mg, 0.20 mg, 1 mg and 5 mg. These amounts translate to field application rates respectively as 30, 120, 600 and 3000 g per hectare.
Efficacy of the compounds described herein as nematicide was measured by visual inspection of the crop vigor and the crop height. The crop vigor evaluation is based on a 0-100 scale, where 0 is “no vigor” and 100 is “maximum vigor”. The crop height development is based on a measurement, in cm, per plant, excluding the root system.
Positive control plants were treated with Oxamyl (Vydate 5 G, 5% gr) at a rate of 40 kg fp per ha. Negative controls involved single negative controls (no compound, with nematode infested soil; referenced as “Untreated 1”) and double negative controls (no compound, sterile soil; referenced as “Untreated 2”).

Data set [6] has as its system sugar beet (variety GEA (KWS)). Description: Pot Assay 3: phytotoxicity, number of sugar beet plants emerged. To be noted: Rate 0.05 mg. The method, then:
as §1
Phytotoxicity assessments were carried by assessing any possible effects of the chemicals on the crop, such as chlorosis, yellowing, stunting, in comparison to the untreated control without nematodes.

The subject of data set [7] is root-knot nematode (Meloidogyne spp). Put plainly: Nematicide field trial on cucumber: root galling and yield. To be noted: for Average root galling: 0-5 Lamberti scale. The method, then:
Open ground grown cucumber (Cucumis sativus cv Carine) were grown on sandy soil with a natural root-knot nematode (Meloidogyne spp) population. Soil samples, collected prior to planting, contained on average 8 J2 juveniles per 100 g soil. A program of 4 applications with intervals of about 14 days was started six days after transplantation.
(§2) An experimental pattern at Complete Randomized Blocks with four replicas was adopted. Besides the experimental products, each test also included an untreated control and a treatment with the standard commercial product VYDATE 10L (10%) applied in accordance to label instructions.
[…] The level of nematode attack of the root system at the time of harvesting was assessed by means of the lamberti scoring.

Data set [8] shares this test system. Description: Nematicide field trial on tomato: root galling and yield. To be noted: for Average root galling: 0-5 Lamberti scale. The method, then: Open field tomatoes (Lycopersicon esculentum, variety incas) were grown on sandy soil with a natural root-knot nematode (Meloidogyne spp) population. Soil samples, collected prior to planting, contained on average 113 J2 juveniles per 100 g soil. A program of 5 applications with intervals of about 14 days was started two days after transplantation.
as §2
The read-outs are the average yield of the marketable tomatoes per plant (Table 7). The level of nematode attack of the root system at the time of harvesting was assessed by means of the lamberti scoring.

[9] abbreviates: Product Rate 1 (footnote g ai/ha).
[10] abbreviates: Product Rate 2 (footnote g ai/ha).

Consider `CC1COC(Cn2cncn2)(c2ccc(Oc3ccc(Cl)cc3)cc2Cl)O1` (mixture of isomers) [XLIX], for which, in data set [1] (10 μM), the “number of egg masses (galls) on roots, Replicate 1” value (“number of egg masses … Replicate 1” for short) was found to be 70; the “number of egg masses (galls) on roots, Replicate 2” value (shortened to “number of egg masses … Replicate 2”) is 60; the “number of egg masses (galls) on roots, Replicate 3” value (“number of egg masses … Replicate 3” for short) was determined as 40. Also, in data set [1] (50 μM), the “number of egg masses … Replicate 2” value was 60 and the “number of egg masses … Replicate 3” value is 10. For the same compound, the “ROOT DEV.” value in data set [2] (RATE 1 mg) is 7.9. Also, the “% INF. (% Infestation)” value in data set [3] (RATE 1 mg) is given as 0.0%. Also, the “Root knot count, average of the replicate counts” value (“Root knot count, average” for short) in data set [4] was 19.25.

As for `COC(=O)c1sccc1S(=O)(=O)NC(=O)Nc1nc(C)nc(OC)n1` [XL], in data set [5], the “crop height (cm)” value worked out at 12 cm and the “crop vigor (max 100%)” value was determined as 90%. Besides, in data set [4], the “Root knot count, average” value amounted to 0.

In the case of `c1coc(-c2nc3ccccc3[nH]2)c1` [XVI], the “number of egg masses … Replicate 2” value in data set [1] (10 μM) is reported as 50. Besides, in data set [1] (50 μM), the “number of egg masses … Replicate 2” value stood at 40 and the “number of egg masses … Replicate 3” value came to 15. Further, in data set [6], the “# crops emerged (max 18)” value came to 18. In addition, in data set [5], the “crop height (cm)” value was found to be 13 cm and the “crop vigor (max 100%)” value worked out at 90%. Moreover, in data set [4], the “Root knot count, average” value is 14.5.

As for `CCN(Cc1ccc(Cl)nc1)/C(=C/[N+](=O)[O-])NC` [XXIX], in data set [1] (50 μM), the “number of egg masses … Replicate 1” value is reported as 50. Moreover, the “number of egg masses … Replicate 2” value in data set [1] (50 μM) was 40. Moreover, the “number of egg masses … Replicate 3” value in data set [1] (50 μM) was 40. Further, the “ROOT DEV.” value in data set [2] (RATE 0.05 mg) is reported as 7.9; in data set [2] (RATE 0.2 mg), 7.7; in data set [2] (RATE 1 mg), 7.5; in data set [2] (RATE 5 mg), 6.6. In addition, the “% INF. (% Infestation)” value in data set [3] (RATE 0.05 mg) is on record as 3.8%; in data set [3] (RATE 0.2 mg) it was 1.3%; in data set [3] (RATE 1 mg) it was 2.5%; in data set [3] (RATE 5 mg) it was 5.0%. For the same compound, the “Root knot count, average” value in data set [4] came out at 17.5.

For the compound `CC(C)NC(=O)N1CC(=O)N(c2cc(Cl)cc(Cl)c2)C1=O` [XXV], the “number of egg masses … Replicate 1” value in data set [1] (10 μM) is given as 50; in data set [1] (50 μM), 30. Also, the “number of egg masses … Replicate 2” value is 50 in data set [1] (10 μM) and 25 in data set [1] (50 μM). In addition, in data set [1] (50 μM), the “number of egg masses … Replicate 3” value is 20. In data set [4], the “Root knot count, average” value is on record as 17. In addition, the “Average yield of marketable fruits” value stood at 6.7 kg/plant/pot in data set [7] (Product Rate 500 g ai/ha), 9.1 kg/plant/pot in data set [7] (Product Rate 1500 g ai/ha), 1.45 kg/plant/pot in data set [8] (setting [9]) and 1.33 kg/plant/pot in data set [8] (setting [10]). For the same compound, the Average root galling in data set [7] (Product Rate 500 g ai/ha) came to 2.75; in data set [7] (Product Rate 1500 g ai/ha), 1.75; in data set [8] (setting [9]), 1.8; in data set [8] (setting [10]), 1.3.

Regarding `CCCCOCCOCCOCc1cc2c(cc1CCC)OCO2` [XXXII], the “ROOT DEV.” value in data set [2] (RATE 0.05 mg) is given as 6.5; in data set [2] (RATE 0.2 mg) it was 7.6; in data set [2] (RATE 1 mg) it was 7.6; in data set [2] (RATE 5 mg) it was 6.7. Also, the “% INF. (% Infestation)” value in data set [3] (RATE 0.05 mg) turned out to be 0.0%; in data set [3] (RATE 0.2 mg) it was 0.0%; in data set [3] (RATE 1 mg), 1.3%; in data set [3] (RATE 5 mg) it was 2.5%. The “Root knot count, average” value in data set [4] is 19.25.

For the compound `COc1ccc(/C(=C/C(=O)N2CCOCC2)c2ccc(Cl)cc2)cc1OC` [X], the “ROOT DEV.” value is on record as 6.8 in data set [2] (RATE 0.05 mg) and 7.9 in data set [2] (RATE 0.2 mg). Besides, the “% INF. (% Infestation)” value in data set [3] (RATE 0.05 mg) came to 5.0%; in data set [3] (RATE 0.2 mg), 1.3%. Also, in data set [4], the “Root knot count, average” value worked out at 10.5.
